Measurements: patent publication US3957850A, “Phenylacetic acid derivatives” (priority 1971, dated 1976)
Where two headings read alike, the source gives them in different places.

Tests used:
[1] = Acute toxicity determination, oral LD50 by method of BEHRENS and KARBER; conditions: mouse, in vivo, female Swiss mice, 48 hours observation
Procedure: Acute toxicity tests were carried out with lots of 10 female mice of "Swiss" strain, weighing from 19 to 21 g.
The means lethal dose (LD50) by the oral route was determined by means of the method of BEHRENS and KARBER after keeping the animals under observation during 48 hours. In this table are also set forth the LD50 of acetylsalicylic acid and of indometacine used as reference materials.

[2] = tested on: carragheenin-induced edema of the paws; assay: Anti-inflammatory activity: test of the carragheenin-induced edema of the paws in rats; assay type: in vivo; conditions: Rattus norvegicus, 1 h, read-out: % inhibition of inflammation; for inhibition in vivo at 50 mg/kg: 50 mg/kg (about 1/36 of LD50); for inhibition in vivo at 67 mg/kg: 67 mg/kg (about 1/36 of LD50); for inhibition in vivo at 33 mg/kg: 33 mg/kg (about 1/36 of LD50)
Procedure: The anti-inflammatory activity was determined by means of the test of the carragheenin-induced edema of the pawsin rats.
Male rats weighing about 120 g are administered 0.1 ml of an 0.5% carragheenin suspension (plantar sub-aponeurotic injection) one hour after oral treatment with the various test compounds.
The volume of the rear paws is measured prior to injection of the inflammatory agent, and then 2, 3 and 4 hours after injection.
The difference between the volume of the paws of the treated animals and the volume of the paws of the reference animals evidences the anti-inflammatory action of the various test compounds.
The same test was carried out with indometacine.

[3] = tested on: peritoneal pain induced by injection of acetic acid; assay: Analgesic activity: inhibition test of the peritoneal pain induced by injection of acetic acid (writhing); assay type: in vivo, mice; conditions: Mus musculus, read-out: % analgesia
Procedure: The analgesic activity was determined by the inhibition test of the peritoneal pain induced by injection of acetic acid.
The materials having an analgesic action reduce or eliminate this syndrome.
Lots of 10 mice are given orally the various test compounds, 30 minutes prior to injection of the challenging material. The writhing movements are counted during 15 minutes and the analgesic effect is expressed as percent decrease of the number of stretching movements with respect to the reference animals.
The same test was carried out with acetylsalicylic acid.

[4] = male rats, oral, one hour before carragheenin
[5] = mice, oral, 30 minutes before acetic acid
[6] = male rats, oral, 81 mg/kg (about 1/36 of LD50), one hour before carragheenin

Row | SMILES | LD50 at 48 h [1] [mg/kg] | inhibition in vivo at 67 mg/kg [2, 4] [%] | other results
1 | C=CCNc1ccc(C(C)C(=O)[O-])cc1.[Li+] (stereo not shown) | 2910 |  | 
2 | C=CCNc1ccc(C(C)C(=O)O)cc1 (stereo not shown) [2-(p-allylaminophenyl)propionic acid, 2-(p-Allylaminophenyl)-propionic acid] | 1780 |  | inhibition in vivo at 50 mg/kg [2, 4]: 50%; inhibition in vivo at 20 mg/kg ([3]; mice, oral, 20 mg/kg, 30 minutes before acetic acid): 50%
3 | CC(C(=O)O)c1ccc(NCc2ccccc2)cc1 (stereo not shown) [2-(p-benzylaminophenyl)propionic acid] | 880 |  | inhibition in vivo at 25 mg/kg ([2]; male rats, oral, 25 mg/kg (about 1/36 of LD50), one hour before carragheenin): 12%; inhibition in vivo at 10 mg/kg ([3]; mice, oral, 10 mg/kg, 30 minutes before acetic acid): 47%
4 | CCNc1ccc(C(C)C(=O)O)cc1 (stereo not shown) [2-(p-ethylaminophenyl)propionic acid, 2-(p-Ethylaminophenyl)propionic acid] | 2400 | 47 | inhibition in vivo at 27 mg/kg [3, 5]: 44%
5 | CC(C)Nc1ccc(C(C)C(=O)O)cc1 (stereo not shown) [2-(p-isopropylaminophenyl)propionic acid, 2-(p-Isopropylaminophenyl)-propionic acid] | 2400 | 44 | inhibition in vivo at 27 mg/kg [3, 5]: 56%
6 | C=C(C)CNc1ccc(C(C)C(=O)O)cc1 (stereo not shown) [2-(p-methallylaminophenyl)propionic acid, 2-(p-Methallylaminophenyl)propionic acid] | 2400 | 51 | inhibition in vivo at 7 mg/kg ([3]; mice, oral, 7 mg/kg, 30 minutes before acetic acid): 58%
7 | CNc1ccc(C(C)C(=O)O)cc1 (stereo not shown) [2-(p-methylaminophenyl)propionic acid, 2-(p-Methylaminophenyl)propionic acid] | > 3200 |  | inhibition in vivo at 89 mg/kg ([2]; male rats, oral, 89 mg/kg (about 1/36 of LD50), one hour before carragheenin): 44%; inhibition in vivo at 36 mg/kg [3, 5]: 60%
8 | CCCCNc1ccc(C(C)C(=O)O)cc1 (stereo not shown) [2-(p-n-butylaminophenyl)propionic acid, 2-(p-n-Butylaminophenyl)propionic acid] | 1200 |  | inhibition in vivo at 33 mg/kg [2, 4]: 33%; inhibition in vivo at 13 mg/kg ([3]; mice, oral, 13 mg/kg, 30 minutes before acetic acid): 50%
9 | CCCNc1ccc(C(C)C(=O)O)cc1 (stereo not shown) [2-(p-n-propylaminophenyl)-propionic acid, 2-(p-n-Propylaminophenyl)propionic acid] | 2400 | 47 | inhibition in vivo at 13.5 mg/kg [3, 5]: 61%
10 | C#CCNc1ccc(C(C)C(=O)O)cc1 (stereo not shown) [2-(p-propargylaminophenyl)propionic acid, 2-(p-Propargylaminophenyl)-propionic acid] | 2400 | 47 | inhibition in vivo at 13.5 mg/kg [3, 5]: 55%
11 | C=C(C)CNc1ccc(C(C)C(=O)OC)cc1.Cl (stereo not shown) [Methyl 2-(p-methallylaminophenyl)-propionate hydrochloride] | 2400 | 46 | inhibition in vivo at 27 mg/kg [3, 5]: 49%
12 | CC(=O)Oc1ccccc1C(=O)O [acetylsalicylic acid, reference compound] | 1500 |  | inhibition in vivo at 100 mg/kg ([3]; po): 55%
13 | C=CCNc1ccc(CC(=O)OCC)cc1 [ethyl p-allylaminophenylacetate, Ethyl para-allylaminophenylacetate] | 2400 | 39 | inhibition in vivo at 67 mg/kg [3, 5]: 41%
14 | C=C(C)CNc1ccc(CC(=O)OCC)cc1 [ethyl p-methallylaminophenylacetate, Ethyl p-methallylaminophenylacetate] | 2400 | 38 | inhibition in vivo at 67 mg/kg [3, 5]: 51%
15 | COc1ccc2c(c1)c(CC(=O)O)c(C)n2C(=O)c1ccc(Cl)cc1 [indometacine, reference compound] | 50 |  | inhibition in vivo at 5 mg/kg ([2]; po): 37%
16 | C=CCNc1ccc(C(C)C(=O)[O-])cc1.[Li+] (stereo not shown) [lithium salt] |  |  | inhibition in vivo at 81 mg/kg ([2]; po): 59%; inhibition in vivo at 81 mg/kg ([3]; po): 28%
17 | C=CCNc1ccc(C(C)C(=O)OC)cc1 (stereo not shown) [methyl 2-(p-allylaminophenyl)propionate, Methyl 2-(p-allylaminophenyl)-propionate] | 1600 |  | inhibition in vivo at 50 mg/kg [2, 4]: 35%; inhibition in vivo at 25 mg/kg ([3]; mice, oral, 25 mg/kg, 30 minutes before acetic acid): 57%
18 | C=CCNc1ccc(CC(=O)O)cc1 [p-allylaminophenylacetic acid, p-Allylaminophenylacetic acid] | 1550 |  | inhibition in vivo at 45 mg/kg ([2]; male rats, oral, 45 mg/kg (about 1/36 of LD50), one hour before carragheenin): 32%; inhibition in vivo at 100 mg/kg ([3]; mice, oral, 100 mg/kg, 30 minutes before acetic acid): 51%
19 | O=C(O)Cc1ccc(NCc2ccccc2)cc1 [p-benzylaminophenylacetic acid, p-Benzylaminophenylacetic acid] | 2400 | 26 | inhibition in vivo at 67 mg/kg [3, 5]: 33%
20 | CCNc1ccc(CC(=O)O)cc1 [p-ethylaminophenylacetic acid, p-Ethylaminophenylacetic acid] | 2910 |  | inhibition in vivo at 81 mg/kg [2, 6]: 23%; inhibition in vivo at 16 mg/kg ([3]; mice, oral, 16 mg/kg, 30 minutes before acetic acid): 37.5%
21 | CC(C)Nc1ccc(CC(=O)O)cc1 [p-isopropylaminophenylacetic acid, p-Isopropylaminophenylacetic acid] | 2400 | 42 | inhibition in vivo at 13.5 mg/kg [3, 5]: 42%
22 | C=C(C)CNc1ccc(CC(=O)O)cc1 [p-methallylaminophenylacetic acid, p-Methallylaminophenylacetic acid] | 1780 |  | inhibition in vivo at 49 mg/kg ([2]; male rats, oral, 49 mg/kg (about 1/36 of LD50), one hour before carragheenin): 25%; inhibition in vivo at 49 mg/kg ([3]; mice, oral, 49 mg/kg, 30 minutes before acetic acid): 32%
23 | CCCCNc1ccc(CC(=O)O)cc1 [p-n-butylaminophenylacetic acid, p-n-Butylaminophenylacetic acid] | 1200 |  | inhibition in vivo at 33 mg/kg [2, 4]: 21%; inhibition in vivo at 33 mg/kg ([3]; mice, oral, 33 mg/kg, 30 minutes before acetic acid): 51%
24 | CCCNc1ccc(CC(=O)O)cc1 [p-n-propylaminophenylacetic acid, p-n-Propylaminophenylacetic acid] | 2400 | 38 | inhibition in vivo at 27 mg/kg [3, 5]: 49%
25 | C#CCNc1ccc(CC(=O)O)cc1 [p-propargylaminophenylacetic acid] | 2910 |  | inhibition in vivo at 81 mg/kg [2, 6]: 18%; inhibition in vivo at 36 mg/kg [3, 5]: 51%
